Experimental findings from patent US6476019B1, “Spirocyclic ligands for sigma receptors, and libraries and methods of use thereof” (Sepracor Inc., priority 1999, dated 2002) are described below.

Some results are limits rather than exact numbers.

One experiment addresses human serotonin 5-HT2A (Homo sapiens, UniProt P28223). The experiment in a line: Behavioral receptor assays: 5-HT2A. In kind it is binding. The note with it: read-out: Receptors (IC50) 5-HT2A. The procedure: (§1) Various compounds of the present invention (19, 31, and 32) were evaluated in a group of assays based on mammalian cellular receptors associated with behavior. The group consisted of assays base on human dopamine D1, D2L, D3, D4.2, D4.4, D4.7, and D5 receptors, and the transporter; human serotonin 5-HT1A, 5-HT1B, 5-HT1D, 5-HT2A, 5-HT2B, 5-HT2C, 5-HT3, 5-HT5A, 5-HT6, and 5-HT7 receptors, and the human serotonin transporter; guinea pig 5-HT4 and sigma-1 receptors; rat sigma-2 and muscarinic receptors; and human NK1-3 receptors. The following table presents a subset of the results of these assays.

The subject of a further experiment is Male Wistar rats. The experiment in a line: MK-801-Induced Psychosis Model. The format is in vivo, rat. Particulars: rat, 1 mg/kg i.p.; MK-801 0.3 mg/kg i.p. An excerpt: The non-competitive NMDA receptor antagonist MK-801 induces stereotypies and hyperactivity in rodents (1) by interacting with the NMDA receptor-associated ion channel. Phencyclidine, which also interferes with the NMDA receptor, produces psychotic effects in humans similar in many respects to schizophrenia. […] Therefore the MK-801-induced activity and stereotypies in rats may represent an appropriate animal model to test the potential efficacy of antipsychotic drugs.
Male Wistar rats (Iffa Crédo, St Germain/l'Arbresle, France), weight 250-300 g were housed 2 per cage on a 12 h/12 h light dark cycle (lights on at 7.00 a.m.) at a room temperature of 21±2° C. for a minimum of 5 days before testing. All animals had access to commercial food and tap water ad libitum.
On the day of the experiment, rats were treated with either reference drug vehicle, the reference drugs haloperidol or clozapine the test compound vehicle or test compounds. After administration, the rats were returned to their home cages for 15 minutes. […] The remaining rats treated with placebo received a second injection of vehicle. The standard injection volume was 2.0 ml/kg. After 10 minutes in the home cages, rats were transferred to the test box (Plexiglas, 29×12×12 cm), 5 minutes before the assessment for accomodation. The test box was cleaned with 70% ethanol before each assessment. Stereotypies, defined as wall-contacts with the snout, and locomotion, defined as turn-rounds of 180°, were assessed during 5 minute periods.

For a further experiment, the target named is human serotonin 5-HT2B (Homo sapiens, UniProt P41595). The experiment in a line: Behavioral receptor assays: 5-HT2B. Particulars: read-out: Receptors (IC50) 5-HT2B. The format is binding. On the procedure:
as §1

The next experiment deals with Male rats. The experiment in a line: Elevated plus maze test (anxiolytic effects). Particulars: rat, doses 1 mg/kg and 5 mg/kg. In kind it is in vivo. The text has this:
In the present study, 32 was investigated on measures of anxiety in an elevated plus-maze test in the rat. In this test, an anxiolytic effect is defined as an increase in the percentage of total entries made onto the open arms and an increase in the percentage of time spent on the open arms of the elevated plus-maze. Anxiogenic drugs reduce both of these measures.
Male rats (Iffa Crédo, St Germain/l'Arbresle, France), weight 220−320 g ate the beginning of the experiment were housed 2 per cage on a 12 h/12 h light dark cycle (lights on at 7.00 a.m.) at a room temperature of 21±2° C. for a minimum of 5 days before testing. All animals had access to commercial food and tap water ad libitum.
The elevated plus maze test consists of four arms connected by a central square, the arms are all horizontal and at 90° […]. angle from each other making the shape of a plus sign. The maze is raised to a height of 50 cm from the ground. […] These arms are therefore referred to as the enclosed arms, respectively.
Each test was started by placing the rat at the intersect of the maze arms facing into one of the enclosed arms. The rat had free access to all 4 arms for the period of 5 min. The number and duration of entries into each arm during this time were scored manually.
Undruged rats typically spend 30-60 seconds on the open arms and about 3 minutes on the closed arms. […]

In experiment [1] the target is Rat GABAA Benzodiazepine (Peripheral) (Rattus norvegicus, UniProt P16257). The experiment in a line: Additional receptor assay. In kind it is binding. The procedure: (§2) Results of Additional Receptor Assays Performed on Compound 31 at a Concentration of 10 μM
Experiment [2] relates to Rat Glutamate, NMDA (Agonist). The experiment in a line: Additional receptor assay. In kind it is binding. The note with it: 10 μM. The procedure:
as §2

In another experiment the target is Human Adrenergic α2A (Homo sapiens, UniProt P08913). The experiment in a line: Additional receptor assay. The format is binding. On the procedure:
as §2

The subject of experiment [3] is Rat GABAA Benzodiazepine (Central). The experiment in a line: Additional receptor assay. In kind it is binding. Particulars: 10 μM. On the procedure: as §2
The target in the next experiment is Rat GABAB (Rattus norvegicus, UniProt Q9Z0U4). The experiment in a line: Additional receptor assay. The format is binding. The note with it: 10 μM. On the procedure:
as §2

Another experiment deals with Rat Adrenergic α1. The experiment in a line: Additional receptor assay. In kind it is binding. The note with it: 10 μM. On the procedure:
as §2

The target in the next experiment is Human Adrenergic β3 (Homo sapiens, UniProt P13945). The experiment in a line: Additional receptor assay. In kind it is binding. The procedure: as §2
The next experiment deals with Human Adrenergic β2 (Homo sapiens, UniProt P07550). The experiment in a line: Additional receptor assay. The format is binding. The procedure:
as §2

In the next experiment the target is Human Adrenergic β1 (Homo sapiens, UniProt P08588). The experiment in a line: Additional receptor assay. In kind it is binding. The procedure:
as §2

In the next experiment the target is Human Adrenergic α2C (Homo sapiens, UniProt P18825). The experiment in a line: Additional receptor assay. In kind it is binding. The procedure: as §2
The next experiment deals with Human Orphanin (ORL1) (Homo sapiens, UniProt P41146). The experiment in a line: Additional receptor assay. The format is binding. On the procedure:
as §2

The next experiment relates to Rat GABAA Transporter. The experiment in a line: Additional receptor assay. The note with it: 10 μM. The format is binding. On the procedure:
as §2

For experiment [4], the target named is Rat Glutamate, NMDA (Glycine) (Rattus norvegicus, UniProt P35439). The experiment in a line: Additional receptor assay. In kind it is binding. The procedure: as §2
Experiment [5] deals with Rat GABAA Chloride Channel. The experiment in a line: Additional receptor assay. In kind it is binding. The note with it: 10 μM. The procedure: as §2
Experiment [6] has as its system Rat Glutamate, NMDA (Polyamine). The experiment in a line: Additional receptor assay. The format is binding. Particulars: 10 μM. On the procedure:
as §2

In a further experiment the test system is Rat GABAA Agonist Site. The experiment in a line: Additional receptor assay. The format is binding. The note with it: 10 μM. The procedure: as §2
The subject of experiment [7] is Rat Glutamate, NMDA (Phencyclidine). The experiment in a line: Additional receptor assay. The format is binding. The note with it: 10 μM. On the procedure: as §2

Chain of Human Adrenergic α2C (P18825 whole entry): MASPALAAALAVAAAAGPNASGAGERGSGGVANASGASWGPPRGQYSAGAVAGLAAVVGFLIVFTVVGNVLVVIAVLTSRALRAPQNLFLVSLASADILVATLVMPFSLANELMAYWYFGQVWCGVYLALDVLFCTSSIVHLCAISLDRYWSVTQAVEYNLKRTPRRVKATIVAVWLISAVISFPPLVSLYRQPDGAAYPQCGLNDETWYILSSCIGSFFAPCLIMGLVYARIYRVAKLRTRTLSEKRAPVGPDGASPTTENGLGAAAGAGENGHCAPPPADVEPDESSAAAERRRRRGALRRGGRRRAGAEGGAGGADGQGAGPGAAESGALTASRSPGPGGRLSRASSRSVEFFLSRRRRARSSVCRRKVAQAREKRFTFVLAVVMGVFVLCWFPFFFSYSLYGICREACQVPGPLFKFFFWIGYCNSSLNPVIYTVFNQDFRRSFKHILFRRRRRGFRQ
Chain of Human Orphanin (ORL1) (P41146 whole entry): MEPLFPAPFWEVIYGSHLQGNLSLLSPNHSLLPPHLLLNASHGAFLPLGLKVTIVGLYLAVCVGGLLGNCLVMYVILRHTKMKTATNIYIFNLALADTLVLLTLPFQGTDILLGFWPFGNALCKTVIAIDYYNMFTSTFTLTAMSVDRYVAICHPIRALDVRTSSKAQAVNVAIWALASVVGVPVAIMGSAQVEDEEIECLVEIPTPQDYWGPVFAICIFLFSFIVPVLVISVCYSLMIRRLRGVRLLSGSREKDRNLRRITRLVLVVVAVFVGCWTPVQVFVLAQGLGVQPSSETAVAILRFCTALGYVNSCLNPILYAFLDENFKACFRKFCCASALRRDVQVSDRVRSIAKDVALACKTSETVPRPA
Chain of human serotonin 5-HT2A (P28223 whole entry): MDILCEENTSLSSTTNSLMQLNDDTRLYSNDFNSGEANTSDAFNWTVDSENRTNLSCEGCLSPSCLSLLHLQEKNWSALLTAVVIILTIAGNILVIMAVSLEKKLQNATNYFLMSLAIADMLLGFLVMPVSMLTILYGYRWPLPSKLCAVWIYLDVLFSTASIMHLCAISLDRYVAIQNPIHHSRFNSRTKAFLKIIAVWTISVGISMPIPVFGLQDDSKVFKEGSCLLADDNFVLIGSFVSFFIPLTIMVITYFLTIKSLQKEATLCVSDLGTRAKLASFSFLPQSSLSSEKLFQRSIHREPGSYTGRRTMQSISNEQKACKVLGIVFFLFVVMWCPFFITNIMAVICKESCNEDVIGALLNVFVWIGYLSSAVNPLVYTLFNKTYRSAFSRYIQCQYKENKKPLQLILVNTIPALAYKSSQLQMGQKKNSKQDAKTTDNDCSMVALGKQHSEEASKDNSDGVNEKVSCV
Chain of human serotonin 5-HT2B (P41595 whole entry): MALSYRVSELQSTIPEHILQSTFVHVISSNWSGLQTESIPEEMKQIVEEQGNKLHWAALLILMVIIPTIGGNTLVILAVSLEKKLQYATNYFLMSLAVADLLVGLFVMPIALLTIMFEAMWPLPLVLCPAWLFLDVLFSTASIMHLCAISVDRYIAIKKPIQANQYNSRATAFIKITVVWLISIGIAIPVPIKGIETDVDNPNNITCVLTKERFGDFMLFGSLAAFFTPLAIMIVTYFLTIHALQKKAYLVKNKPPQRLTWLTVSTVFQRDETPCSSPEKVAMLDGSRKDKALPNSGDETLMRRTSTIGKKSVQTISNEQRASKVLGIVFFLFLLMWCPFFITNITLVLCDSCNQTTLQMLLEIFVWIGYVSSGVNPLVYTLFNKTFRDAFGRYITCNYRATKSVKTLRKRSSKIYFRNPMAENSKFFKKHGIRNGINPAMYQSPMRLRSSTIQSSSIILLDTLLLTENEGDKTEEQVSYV
Chain of Human Adrenergic β1 (P08588 whole entry): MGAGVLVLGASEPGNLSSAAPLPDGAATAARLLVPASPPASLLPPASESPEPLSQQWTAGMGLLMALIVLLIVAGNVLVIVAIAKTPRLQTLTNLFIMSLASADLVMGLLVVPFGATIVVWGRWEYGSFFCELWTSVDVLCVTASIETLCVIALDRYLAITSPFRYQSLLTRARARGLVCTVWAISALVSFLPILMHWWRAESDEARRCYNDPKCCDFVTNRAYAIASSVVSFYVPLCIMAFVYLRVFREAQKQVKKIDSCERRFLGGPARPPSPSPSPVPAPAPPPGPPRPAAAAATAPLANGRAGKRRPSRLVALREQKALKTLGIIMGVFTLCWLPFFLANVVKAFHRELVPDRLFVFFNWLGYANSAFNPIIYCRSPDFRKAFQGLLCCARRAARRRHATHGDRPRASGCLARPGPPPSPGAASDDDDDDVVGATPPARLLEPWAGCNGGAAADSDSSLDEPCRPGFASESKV
Chain of Human Adrenergic α2A (P08913 whole entry): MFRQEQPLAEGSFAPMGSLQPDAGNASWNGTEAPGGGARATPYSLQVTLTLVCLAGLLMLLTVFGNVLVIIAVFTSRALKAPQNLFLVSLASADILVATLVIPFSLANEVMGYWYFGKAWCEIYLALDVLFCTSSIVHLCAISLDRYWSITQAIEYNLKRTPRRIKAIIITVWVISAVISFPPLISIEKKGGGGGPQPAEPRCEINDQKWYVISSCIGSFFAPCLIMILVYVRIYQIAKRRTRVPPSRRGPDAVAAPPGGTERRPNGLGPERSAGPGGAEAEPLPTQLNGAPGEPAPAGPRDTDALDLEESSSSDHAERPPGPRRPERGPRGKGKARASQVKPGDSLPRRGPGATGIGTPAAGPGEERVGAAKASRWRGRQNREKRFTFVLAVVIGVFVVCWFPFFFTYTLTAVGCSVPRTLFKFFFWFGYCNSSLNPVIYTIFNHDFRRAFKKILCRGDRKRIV
Chain of Human Adrenergic β2 (P07550 whole entry): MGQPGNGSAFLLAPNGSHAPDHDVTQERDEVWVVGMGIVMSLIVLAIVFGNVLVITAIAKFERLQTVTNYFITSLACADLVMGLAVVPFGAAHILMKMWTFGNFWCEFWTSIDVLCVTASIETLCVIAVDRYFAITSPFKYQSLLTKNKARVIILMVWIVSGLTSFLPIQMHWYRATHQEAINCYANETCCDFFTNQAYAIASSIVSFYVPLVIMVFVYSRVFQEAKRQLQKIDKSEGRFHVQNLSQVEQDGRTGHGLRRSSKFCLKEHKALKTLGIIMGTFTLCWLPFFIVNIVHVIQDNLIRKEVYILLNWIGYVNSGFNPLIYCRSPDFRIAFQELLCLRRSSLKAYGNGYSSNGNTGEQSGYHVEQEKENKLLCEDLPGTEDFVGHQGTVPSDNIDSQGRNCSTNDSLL
Chain of Rat GABAB (Q9Z0U4 17-960 limits assumed): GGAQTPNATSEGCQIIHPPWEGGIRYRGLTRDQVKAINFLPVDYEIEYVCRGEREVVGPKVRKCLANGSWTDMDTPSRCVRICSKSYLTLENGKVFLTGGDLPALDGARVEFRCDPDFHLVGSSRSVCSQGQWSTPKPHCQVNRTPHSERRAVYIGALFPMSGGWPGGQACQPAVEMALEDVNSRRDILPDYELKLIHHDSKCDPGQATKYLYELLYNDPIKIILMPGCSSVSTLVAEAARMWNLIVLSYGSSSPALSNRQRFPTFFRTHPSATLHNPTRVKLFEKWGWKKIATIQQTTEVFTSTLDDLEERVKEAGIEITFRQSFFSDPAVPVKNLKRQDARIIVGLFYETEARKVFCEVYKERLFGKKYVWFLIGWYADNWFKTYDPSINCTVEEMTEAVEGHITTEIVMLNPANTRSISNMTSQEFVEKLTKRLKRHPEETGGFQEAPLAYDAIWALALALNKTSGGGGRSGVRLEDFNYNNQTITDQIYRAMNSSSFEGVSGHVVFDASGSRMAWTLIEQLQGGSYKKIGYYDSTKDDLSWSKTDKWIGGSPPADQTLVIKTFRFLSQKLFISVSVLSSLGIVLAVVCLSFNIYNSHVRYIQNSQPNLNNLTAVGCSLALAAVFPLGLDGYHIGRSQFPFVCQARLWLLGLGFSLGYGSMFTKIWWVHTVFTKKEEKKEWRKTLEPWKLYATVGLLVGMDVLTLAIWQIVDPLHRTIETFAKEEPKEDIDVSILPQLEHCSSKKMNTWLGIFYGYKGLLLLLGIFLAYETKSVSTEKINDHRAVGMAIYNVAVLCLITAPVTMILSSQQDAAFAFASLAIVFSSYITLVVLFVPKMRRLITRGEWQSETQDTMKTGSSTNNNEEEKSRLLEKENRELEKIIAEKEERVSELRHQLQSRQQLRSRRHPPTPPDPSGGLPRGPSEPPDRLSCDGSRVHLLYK
Chain of Rat GABAB (O88871 41-940 partner): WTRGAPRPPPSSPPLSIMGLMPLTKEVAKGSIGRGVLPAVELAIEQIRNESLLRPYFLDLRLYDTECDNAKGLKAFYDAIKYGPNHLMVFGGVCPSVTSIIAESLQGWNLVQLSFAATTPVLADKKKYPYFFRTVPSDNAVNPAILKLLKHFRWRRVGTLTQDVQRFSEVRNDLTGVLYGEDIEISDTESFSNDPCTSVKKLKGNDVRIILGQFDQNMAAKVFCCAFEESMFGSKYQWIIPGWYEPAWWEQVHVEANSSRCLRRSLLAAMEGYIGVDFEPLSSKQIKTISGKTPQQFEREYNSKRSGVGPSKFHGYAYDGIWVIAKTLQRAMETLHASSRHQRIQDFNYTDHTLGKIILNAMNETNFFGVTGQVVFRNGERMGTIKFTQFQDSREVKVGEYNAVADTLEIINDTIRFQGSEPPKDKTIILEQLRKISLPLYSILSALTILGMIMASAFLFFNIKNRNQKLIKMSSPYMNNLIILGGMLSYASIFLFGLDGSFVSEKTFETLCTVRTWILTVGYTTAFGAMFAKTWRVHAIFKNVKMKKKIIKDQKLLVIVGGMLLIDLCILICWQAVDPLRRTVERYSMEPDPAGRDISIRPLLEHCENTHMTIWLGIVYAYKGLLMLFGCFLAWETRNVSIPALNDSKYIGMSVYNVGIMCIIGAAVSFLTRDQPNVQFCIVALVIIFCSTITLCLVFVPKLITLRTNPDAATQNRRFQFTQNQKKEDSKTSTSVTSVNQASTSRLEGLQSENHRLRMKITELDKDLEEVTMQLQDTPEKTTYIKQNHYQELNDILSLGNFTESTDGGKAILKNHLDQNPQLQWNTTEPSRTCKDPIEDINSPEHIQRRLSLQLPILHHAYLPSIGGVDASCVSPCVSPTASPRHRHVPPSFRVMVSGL

Regarding `OC1CCC2(CCN(Cc3ccc(F)cc3)CC2)Nc2ccccc21` (racemic) [Compound 32, 1′-(4-fluorobenzyl)-3,4-dihydrospiro[5H-1-benzazepine-2(1H)-4′-piperidin]-5ol], the 50% inhibitory concentration (IC50) at human serotonin 5-HT2A was above 1000 nM. Further, in the experiment with Male Wistar rats, the MK-801-induced locomotion result is recorded as “caused a reduction” and the MK-801-induced stereotypies result is on record as “caused a reduction”. For the same compound, the IC50 at human serotonin 5-HT2B was below 1000 nM. Moreover, the “anxiolytic effect in elevated plus-maze” value with Male rats was “tendency towards an anxiolytic effects”.

In the case of `O=C1CCC2(CCN(Cc3ccc(F)cc3)CC2)Nc2ccccc21` [Compound 31, 1′-(4-fluorobenzyl)-3,4-dihydrospiro[5H-1-benzazepine-2(1H)-4′-piperidin]-5-one], the inhibition at 10 µM in experiment [1] was found to be 16%; against Human Adrenergic α2A, 34%; against Human Adrenergic β3, 19%; at Human Adrenergic β2, 15%; against Human Adrenergic β1, 3%; at Human Adrenergic α2C, 2%. The inhibition at 10 µM is 12% on Human Orphanin (ORL1) and 2% in experiment [4]. The “% Inhibition Rat Glutamate, NMDA (Agonist)” value in experiment [2] is “No Inhibition”. Moreover, the “% Inhibition Rat GABAA Benzodiazepine (Central)” value in experiment [3] amounted to 6%. Also, at Rat GABAB, the “% Inhibition Rat GABAB” value is on record as “No Inhibition”. In addition, the “% Inhibition Rat Adrenergic α1” value in the experiment with Rat Adrenergic α1 was determined as 21%. The “% Inhibition Rat GABAA Transporter” value in the experiment with Rat GABAA Transporter is given as “No Inhibition”. Further, in experiment [5], the “% Inhibition Rat GABAA Chloride Channel” value is listed as “No Inhibition”. In addition, the “% Inhibition Rat Glutamate, NMDA (Polyamine)” value in experiment [6] was determined as 12%. Also, the “% Inhibition Rat GABAA Agonist Site” value in the experiment with Rat GABAA Agonist Site is recorded as 13%. Besides, the “% Inhibition Rat Glutamate, NMDA (Phencyclidine)” value in experiment [7] was “No Inhibition”.
